Where only a bound is given, the exact number is not on record here.

The subject of data set [1] is Human immunodeficiency virus 1. Kind of data set: Antiviral activity against HIV-1 harbouring T174I mutant infected in human MT4 cells by MTT assay. It is filed as functional, organism-based. To be noted: Human immunodeficiency virus 1, MT4.
The subject of data set [2] is Human immunodeficiency virus 1. As to the kind of experiment: Antiviral activity against wild type HIV-1 infected in human MT4 cells by MTT assay. It is filed as functional, organism-based. To be noted: Human immunodeficiency virus 1, MT4.
The nature of data set [3]: Cytotoxicity against human MT4 cells by MTT assay. Format: cell-based.
Data set [4] can be described thus: Oral bioavailability in rat at 1 mg/kg. Format: ADME, organism-based. As to conditions: in vivo.
Data set [5] in a line: Metabolic stability in human liver microsomes assessed as parent compound remaining. Format: ADME, Microsome.
Data set [6] in a line: Metabolic stability in rat liver microsomes assessed as parent compound remaining. It is filed as ADME, Microsome.
A short description of data set [7]: Elimination half-life in rat at 0.5 mg/kg, iv or 1 mg/kg, po. Format: ADME, organism-based. To be noted: in vivo, read-out: LambdaZ (converted).
Data set [8] is described as follows: Total clearance in rat at 0.5 mg/kg, iv or 1 mg/kg, po. As to conditions: in vivo. It is filed as ADME, organism-based.
Data set [9] can be described thus: AUC in rat at 0.5 mg/kg, iv. Further details: dose 0.5 mg/kg. As to conditions: in vivo. Format: ADME, organism-based.

Take `Cc1ccc(-c2c(C)nc(NS(=O)(=O)c3cccc4ccccc34)c(C)c2C(OC(C)(C)C)C(=O)O)cc1C` (stereo not given): the EC50 in data set [1] was found to be 1000 nM; in data set [2], 32 nM. In data set [3], this molecule showed a CC50 of 16000 nM.
In data set [4], `Cc1ccc(-c2c(C)nc(NC(=O)NC3CCCCC3)c(C)c2C(OC(C)(C)C)C(=O)O)cc1C` (stereo not given) registered a bioavailability of 9.2%. For the same molecule, the values for the EC50 in data set [1] and in data set [2] were > 1000 nM and 6.6 nM, respectively. The figures for the Stabilty in data set [5] and in [6] were 65% and 66%, respectively. Further, the half-life in data set [7] is 1.6 h. Moreover, the clearance in [8] worked out at 12.5 mL/min/kg. Further, the CC50 in data set [3] is 7900 nM. The molecule further registered an area under the curve (AUC) in data set [9] of 127 ng·h/mL.
On to `Cc1nc(NC(=O)NC2CCCCC2)c(C)c(C(OC(C)(C)C)C(=O)O)c1-c1ccc2c(c1)NCCO2` (stereo not given), for which the EC50 in [2] was > 100 nM. This molecule showed a CC50 in data set [3] of 30000 nM.
The like results for `Cc1ccc(-c2c(C)nc(C(=O)NCc3ccccc3)c(C)c2C(OC(C)(C)C)C(=O)O)cc1C` (stereo not given) were, in that order, 180 nM and 54000 nM.
For `COc1ccc(Nc2nc(C)c(-c3ccc(C)c(C)c3)c(C(OC(C)(C)C)C(=O)O)c2C)cc1` (stereo not given), in that order: 220 nM and 28000 nM.
For `Cc1ccc(-c2c(C)nc(NC(=O)NC3CCCCCC3)c(C)c2C(OC(C)(C)C)C(=O)O)cc1C` (stereo not given), the concentration for a half-maximal effect (EC50) in [1] is > 1000 nM; in data set [2], 11 nM. In data set [3], this molecule gave a CC50 of 7700 nM.
For `Cc1nc(NC(=O)NC2CCCCC2)c(C)c(C(OC(C)(C)C)C(=O)O)c1-c1ccc(C(F)(F)F)cc1` (stereo not given), in that order: 7700 nM, 61 nM and 9800 nM.
The like results for `Cc1ccc(-c2c(C)nc(NC(=O)NC3CCCC3)c(C)c2C(OC(C)(C)C)C(=O)O)cc1C` (stereo not given) were, in that order, > 1000 nM, 8.3 nM and 8000 nM.
The like results for `Cc1ccc(-c2c(C)nc(NC(=O)NCCc3ccccc3)c(C)c2C(OC(C)(C)C)C(=O)O)cc1C` (stereo not given) were, in that order, > 2000 nM, 20 nM and 11000 nM.
`Cc1ccc(-c2c(C)nc(Nc3nc4ccccc4n3C)c(C)c2C(OC(C)(C)C)C(=O)O)cc1C` (stereo not given) displayed an EC50 in data set [2] of 190 nM. In data set [3], this molecule came in with a CC50 of 14000 nM.
In turn, `Cc1ccc(-c2c(C)nc(C(=O)N(C)Cc3ccccc3)c(C)c2C(OC(C)(C)C)C(=O)O)cc1C` (stereo not given) came in with an EC50 in data set [2] of 360 nM. In data set [3], this molecule displayed a CC50 of 77000 nM.
Molecule `Cc1ccc(-c2c(C)nc(Nc3nc4ccccc4s3)c(C)c2C(OC(C)(C)C)C(=O)O)cc1C` (stereo not given) displayed an EC50 in data set [2] of 350 nM. In addition, in data set [3], it took 6600 nM to reach half-maximal cytotoxicity (CC50).
Take `COc1ccc(-c2c(C)nc(NC(=O)NC3CCCCC3)c(C)c2C(OC(C)(C)C)C(=O)O)cc1` (stereo not given): the figures for the EC50 in [1] and in data set [2] were 750 nM and 10 nM, respectively. This molecule gave a CC50 in data set [3] of 19000 nM.
As for `Cc1ccc(-c2c(C)nc(NC(=O)Nc3ccccc3)c(C)c2C(OC(C)(C)C)C(=O)O)cc1C` (stereo not given), the figures for the EC50 in data set [1] and in data set [2] were > 1000 nM and 11 nM, respectively. The CC50 in data set [3] came out at 9900 nM.
The like results for `Cc1ccc(-c2c(C)nc(NC(=O)NCc3ccccc3)c(C)c2C(OC(C)(C)C)C(=O)O)cc1C` (stereo not given) were, in that order, > 4000 nM, 35 nM and 17000 nM.
For `Cc1ccc(-c2c(C)nc(NC(=O)NC3CCOCC3)c(C)c2C(OC(C)(C)C)C(=O)O)cc1C` (stereo not given), in that order: > 5000 nM, 45 nM and 29000 nM.
Turning to `Cc1nc(NC(=O)NC2CCCCC2)c(C)c(C(OC(C)(C)C)C(=O)O)c1-c1ccc2c(c1)CCCO2` (stereo not given), the EC50 amounted to 560 nM in data set [1] and 21 nM in [2]. In data set [3], this molecule gave a CC50 of 17000 nM.
With `Cc1nc(NC(=O)NC2CCCCC2)c(C)c(C(OC(C)(C)C)C(=O)O)c1-c1ccc(Cl)cc1` (stereo not given), the EC50 in [1] was determined as 1800 nM; in data set [2], 17 nM. Further, the CC50 in [3] worked out at 16000 nM.
For `Cc1nc(NC(=O)NC2CCCCC2)c(C)c(C(OC(C)(C)C)C(=O)O)c1-c1ccc2c(c1C)CCCO2` (stereo not given), the EC50 was found to be 270 nM in [1] and 6.6 nM in data set [2]. This molecule had a CC50 in data set [3] of 11000 nM.
For `Cc1nc2ccccc2c(-c2ccc3c4c(ccnc24)CCO3)c1[C@H](OC(C)(C)C)C(=O)O` [BI-224436], in that order: > 5000 nM, 22 nM and > 50000 nM.

Source of the values: ChEMBL document CHEMBL4673360, “Discovery of novel HIV-1 integrase-LEDGF/p75 allosteric inhibitors based on a pyridine scaffold forming an intramolecular hydrogen bond” (Bioorg Med Chem Lett, 2021).
